From patent US9642851B2, “Indolinone derivative as tyrosine kinase inhibitor” (KBP Biosciences Co., Ltd., priority 2012, dated 2017)
Structures can show the parent of a compound that is named as a salt.

Tests used:
FGFR1 = biological target: T1, FGFR1 (Homo sapiens, UniProt P11362); experiment: In vitro enzymology inhibitory activity (Caliper mobility shift kinase assay); assay type: biochemical; conditions: reaction 1 hour at 28° C., FAM-labelled peptide and ATP
T1 construct: purchased Carna
Method: (§1) • (1) Preparation of agents and compounds • (1) 1-fold kinase buffer without MnCl2 (50 mM HEPES, pH=7.5, 0.0015% Brij-35, 10 mM MgCl2, 2 mM DTT) • (2) 1-fold kinase buffer with MnCl2 (50 mM HEPES, pH=7.5, 0.0015% Brij-35, 10 mM MgCl2, 10 mM MnCl2, 2 mM DTT); • (3) Termination solution (100 mM HEPES, pH=7.5, 0.015% Brij-35, 0.2% Coating Reagent #3, 50 mM EDTA); • (4) 2.5-fold kinase solution (the VEGFR2, FGFR1, FGFR3, PDGFRβ kinases were added to the 1-fold kinase buffer respectively to prepare the corresponding 2.5-fold kinase solutions); • (5) 2.5-fold substrate solution: FAM-labelled peptide and ATP were added to the 1-fold kinase buffer to prepare a peptide solution; • (6) 4-fold dilution of the compound solution: the compound was accurately weighed, and dissolved in DMSO. The mixture was mixed sufficiently and evenly to prepare a 10 mM solution. Then the solution was diluted with DMSO to 500 μM, and 4-fold serial dilutions were done at 10 concentrations with a highest concentration of 50μM.
(§2) The calculated inhibition ratio (%)=(max. conversion−sample conversion)/(max. conversion−min. conversion)×100
(§3) The curve fitting was done with the software Xlfit to obtain the IC50 value.

FGFR3 = biological target: T2, FGFR3 (Homo sapiens, UniProt P22607); experiment: as above; assay type: biochemical; conditions: reaction 1 hour at 28° C., FAM-labelled peptide and ATP
T2 construct: purchased Carna
T2 sequence (P22607 23-806): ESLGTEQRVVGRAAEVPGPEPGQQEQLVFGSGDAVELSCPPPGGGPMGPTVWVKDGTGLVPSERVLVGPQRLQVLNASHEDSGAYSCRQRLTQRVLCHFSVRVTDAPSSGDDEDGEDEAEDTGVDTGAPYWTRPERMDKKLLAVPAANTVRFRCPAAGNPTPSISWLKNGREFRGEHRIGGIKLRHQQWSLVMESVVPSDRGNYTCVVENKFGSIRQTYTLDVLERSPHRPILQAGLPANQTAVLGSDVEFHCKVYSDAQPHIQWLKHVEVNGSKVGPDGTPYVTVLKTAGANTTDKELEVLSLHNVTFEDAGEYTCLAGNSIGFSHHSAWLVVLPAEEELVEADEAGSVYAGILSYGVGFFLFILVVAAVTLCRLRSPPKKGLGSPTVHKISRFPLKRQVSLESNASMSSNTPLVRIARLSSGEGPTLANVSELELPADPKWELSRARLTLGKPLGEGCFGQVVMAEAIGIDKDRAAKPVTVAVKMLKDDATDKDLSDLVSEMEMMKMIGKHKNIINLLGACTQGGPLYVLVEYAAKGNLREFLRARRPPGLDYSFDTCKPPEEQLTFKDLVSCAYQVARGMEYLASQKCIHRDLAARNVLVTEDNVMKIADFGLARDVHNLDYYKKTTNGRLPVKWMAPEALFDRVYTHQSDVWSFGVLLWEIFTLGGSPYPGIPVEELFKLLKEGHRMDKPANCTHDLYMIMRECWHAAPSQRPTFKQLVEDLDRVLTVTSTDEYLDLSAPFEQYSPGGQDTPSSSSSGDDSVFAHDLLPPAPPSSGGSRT
Method: as §1, §2, §3

PDGFRβ = biological target: T3, PDGFRβ (Homo sapiens, UniProt P09619); experiment: as above; assay type: biochemical; conditions: reaction 5 hour at 28° C., FAM-labelled peptide and ATP
T3 construct: purchased BPS
T3 sequence (P09619 33-1106): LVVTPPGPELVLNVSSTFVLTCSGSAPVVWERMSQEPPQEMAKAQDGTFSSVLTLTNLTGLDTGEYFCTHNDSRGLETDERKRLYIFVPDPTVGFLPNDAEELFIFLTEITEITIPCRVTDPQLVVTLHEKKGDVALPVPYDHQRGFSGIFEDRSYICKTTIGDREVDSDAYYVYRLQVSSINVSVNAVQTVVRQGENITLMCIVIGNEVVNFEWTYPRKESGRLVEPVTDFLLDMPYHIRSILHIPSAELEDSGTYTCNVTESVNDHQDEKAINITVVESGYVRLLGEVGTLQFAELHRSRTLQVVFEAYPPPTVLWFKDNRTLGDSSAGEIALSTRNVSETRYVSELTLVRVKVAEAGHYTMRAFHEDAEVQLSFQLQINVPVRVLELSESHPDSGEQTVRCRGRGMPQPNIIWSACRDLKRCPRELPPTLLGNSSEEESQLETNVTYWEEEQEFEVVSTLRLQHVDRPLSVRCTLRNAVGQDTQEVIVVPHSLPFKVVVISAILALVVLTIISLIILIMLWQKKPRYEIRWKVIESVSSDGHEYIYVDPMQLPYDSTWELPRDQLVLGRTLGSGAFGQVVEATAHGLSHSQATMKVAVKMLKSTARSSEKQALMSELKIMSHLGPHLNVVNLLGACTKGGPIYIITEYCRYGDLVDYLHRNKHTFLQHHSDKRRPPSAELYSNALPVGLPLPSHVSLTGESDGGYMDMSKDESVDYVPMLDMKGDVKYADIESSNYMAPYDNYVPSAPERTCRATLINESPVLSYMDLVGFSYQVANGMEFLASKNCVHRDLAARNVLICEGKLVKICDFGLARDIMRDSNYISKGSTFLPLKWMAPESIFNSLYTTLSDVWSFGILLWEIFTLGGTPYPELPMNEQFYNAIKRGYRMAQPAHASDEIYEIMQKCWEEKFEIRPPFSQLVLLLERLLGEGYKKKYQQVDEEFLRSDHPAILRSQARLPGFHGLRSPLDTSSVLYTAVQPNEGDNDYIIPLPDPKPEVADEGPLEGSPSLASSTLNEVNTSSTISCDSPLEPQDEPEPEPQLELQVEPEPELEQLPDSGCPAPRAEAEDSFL
Method: as §1, §2, §3

VEGFR2 = biological target: T4, VEGFR2 (Homo sapiens, UniProt P35968); experiment: as above; assay type: biochemical; conditions: reaction 1 hour at 28° C., FAM-labelled peptide and ATP
T4 construct: purchased Carna
T4 sequence (P35968 20-1356): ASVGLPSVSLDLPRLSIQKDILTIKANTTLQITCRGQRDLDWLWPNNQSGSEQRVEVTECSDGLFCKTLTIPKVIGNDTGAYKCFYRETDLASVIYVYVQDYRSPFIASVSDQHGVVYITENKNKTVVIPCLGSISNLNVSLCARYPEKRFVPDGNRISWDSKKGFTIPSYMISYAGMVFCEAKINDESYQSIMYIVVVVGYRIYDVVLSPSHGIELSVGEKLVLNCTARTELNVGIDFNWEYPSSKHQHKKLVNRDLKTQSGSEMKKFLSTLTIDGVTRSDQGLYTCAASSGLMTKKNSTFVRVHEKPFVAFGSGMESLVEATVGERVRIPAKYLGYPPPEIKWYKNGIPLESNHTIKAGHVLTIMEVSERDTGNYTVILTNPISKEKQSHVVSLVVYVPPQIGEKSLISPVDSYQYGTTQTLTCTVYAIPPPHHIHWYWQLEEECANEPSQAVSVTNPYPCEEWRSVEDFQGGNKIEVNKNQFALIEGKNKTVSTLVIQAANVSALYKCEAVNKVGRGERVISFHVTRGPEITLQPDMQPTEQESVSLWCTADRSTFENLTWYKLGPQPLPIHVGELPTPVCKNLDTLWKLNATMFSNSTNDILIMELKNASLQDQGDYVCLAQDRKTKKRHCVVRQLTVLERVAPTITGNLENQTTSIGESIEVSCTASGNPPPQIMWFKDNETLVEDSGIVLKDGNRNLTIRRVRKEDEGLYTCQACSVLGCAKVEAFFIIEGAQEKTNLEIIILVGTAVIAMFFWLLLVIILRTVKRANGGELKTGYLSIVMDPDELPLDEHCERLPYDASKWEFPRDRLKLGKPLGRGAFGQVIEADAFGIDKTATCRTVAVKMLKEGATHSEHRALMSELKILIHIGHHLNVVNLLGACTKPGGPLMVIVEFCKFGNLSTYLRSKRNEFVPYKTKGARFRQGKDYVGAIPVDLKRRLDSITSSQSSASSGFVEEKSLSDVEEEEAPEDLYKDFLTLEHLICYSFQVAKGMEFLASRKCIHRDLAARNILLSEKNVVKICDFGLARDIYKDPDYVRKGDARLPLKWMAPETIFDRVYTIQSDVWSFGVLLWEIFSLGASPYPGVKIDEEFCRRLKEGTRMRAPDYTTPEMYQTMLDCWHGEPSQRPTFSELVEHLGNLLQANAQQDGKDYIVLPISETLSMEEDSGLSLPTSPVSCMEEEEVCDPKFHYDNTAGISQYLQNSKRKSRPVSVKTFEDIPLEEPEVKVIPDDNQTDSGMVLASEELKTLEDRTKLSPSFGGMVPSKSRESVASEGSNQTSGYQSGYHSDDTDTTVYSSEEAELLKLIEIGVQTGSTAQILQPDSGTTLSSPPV
Method: as §1, §2, §3

HUVEC cells = experiment: In vitro cellular inhibitory activity, h-VEGF-A stimulated HUVEC proliferation; assay type: cell-based; conditions: Homo sapiens, h-VEGF-A 10 ng/ml, incubated for 89 hours, absorbance at 490 nm, read-out: ED50 for the HUVEC in vitro cells
Method: (§4) (1) Thawing cells and Passing cells.
(§5) The 3T3 cells were resuspended in a culture medium containing 10% fetal bovine serum, wherein the cell concentration was 5×10^4/ml. The cell suspension was added to a 96-well plate with 100 μL per well, and incubated overnight; the HUVEC cells were resuspended in a culture medium containing 10% heat-inactivated fetal bovine serum, wherein the cell concentration was 7.5×10^4/ml. The cell suspension was added to a 96-well plate with 100 μL per well. • (3) Treating with drugs: the compounds were diluted to different concentrations, and 60 μLh-PDGF-BB (3T3 cells) and 40 ng/ml h-VEGF-A (HUVEC cells) were added and incubated for 1 hour. • (4) 100 μL of a solution containing the compound and h-PDGF-BB (h-VEGF-A, for the HUVEC cells) was added to a cell culture plate, wherein the final concentration of h-PDGF-BB was 10 ng/ml, the final concentration of h-VEGF-A was 10 ng/ml, and the final concentration for the compounds were 10, 3.3333, 1.1111, 0.3704, 0.1235, 0.0412, 0.0137, 0.0046, and 0.0015 μM. The plate was incubated for 40 hours, and the HUVEC cells were incubated for 89 hours. To each well was added 20 μL Promega Substrate, and the plate was incubated at 37° C. for 7.5 hours, and the HUVEC cells were incubated for 11.5 hours. Then the plate was placed in a microplate reader to read the absorbance at 490 nm. • (5) Data processing
(§6) The curve of the compound concentration vs. Net OD was plotted, wherein Net OD=Compound OD−min. OD. ED50 was calculated according to the following equation: Conc. ED50(x)=(y−b)/a, y=Calculated Net OD for IC50, a=slope, b=intercept.

3T3 cells = experiment: In vitro cellular inhibitory activity, h-PDGF-BB stimulated 3T3 proliferation; assay type: cell-based; conditions: Mus musculus, NIH3T3; h-PDGF-BB 10 ng/ml, incubated for 40 hours, absorbance at 490 nm; read-out: ED50 for the 3T3 in vitro cells
Method: as §4, §5, §6

T1 sequence (P11362 22-822): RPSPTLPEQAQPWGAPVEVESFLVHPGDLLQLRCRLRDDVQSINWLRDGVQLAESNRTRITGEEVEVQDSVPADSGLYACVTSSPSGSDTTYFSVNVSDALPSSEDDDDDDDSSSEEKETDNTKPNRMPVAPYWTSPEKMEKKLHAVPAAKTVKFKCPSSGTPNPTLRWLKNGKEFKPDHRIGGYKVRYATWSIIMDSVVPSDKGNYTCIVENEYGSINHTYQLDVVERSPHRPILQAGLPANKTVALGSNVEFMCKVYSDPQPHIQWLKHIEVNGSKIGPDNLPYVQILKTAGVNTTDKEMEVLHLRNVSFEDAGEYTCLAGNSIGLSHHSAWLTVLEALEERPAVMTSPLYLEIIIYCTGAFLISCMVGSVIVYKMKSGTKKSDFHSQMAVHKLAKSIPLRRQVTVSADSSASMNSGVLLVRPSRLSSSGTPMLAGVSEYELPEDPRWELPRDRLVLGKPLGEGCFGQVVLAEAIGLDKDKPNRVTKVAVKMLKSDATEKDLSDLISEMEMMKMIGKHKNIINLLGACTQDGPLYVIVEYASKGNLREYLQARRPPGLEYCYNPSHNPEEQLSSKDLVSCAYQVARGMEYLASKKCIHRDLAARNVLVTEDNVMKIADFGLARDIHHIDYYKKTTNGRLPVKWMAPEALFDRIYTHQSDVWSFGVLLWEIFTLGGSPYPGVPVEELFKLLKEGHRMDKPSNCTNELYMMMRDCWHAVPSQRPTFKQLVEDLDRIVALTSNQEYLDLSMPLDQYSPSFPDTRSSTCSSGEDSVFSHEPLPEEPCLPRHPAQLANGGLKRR

IC50 (FGFR1)	IC50 (FGFR3)	IC50 (PDGFRβ)	IC50 (VEGFR2)	Compound	EC50 (HUVEC cells)	EC50 (3T3 cells)
100 nM	230 nM	7.6 nM	17 nM	COC(=O)c1ccc2c(c1)NC(=O)/C2=C(\Nc1ccc2c(c1)CCN2C(=O)CN1CCN(C)CC1)c1ccccc1 [Compound 1]	56 to 84 nM	60 to 80 nM
–	9800 nM	85 nM	770 nM	COC(=O)c1ccc2c(c1)NC(=O)/C2=C(\Nc1ccc2c(c1)CCN2C(=O)CN1CCOCC1)c1ccc(F)cc1 [Compound 9 hydrochloride, methyl(Z)-3-((4-fluorophenyl)(1-(2-morpholinylacetyl)indolin-5-ylamino)methylene)-2-oxoindoline-6-carboxylate]	130 to 190 nM	–
7960 nM	5300 nM	65 nM	630 nM	CCOC(=O)c1ccc2c(c1)NC(=O)/C2=C(\Nc1ccc2c(c1)CCN2C(=O)CN1CCOCC1)c1ccccc1 [Compound 10 hydrochloride, ethyl(Z)-3-((1-(2-morpholinylacetyl)indolin-5-ylamino)(phenyl)methylene)-2-oxoindoline-6-carboxylate]	90 to 140 nM	–
